Tests used:
[1] = biological target: T1, hM1 (human Muscarinic receptor subtype 1) (Homo sapiens, UniProt P11229); test: Human M1 calcium mobilization FLIPR assay; assay type: cell-based; settings: receptor expressed in CHO cells, intracellular Ca2+ release; read-out: hM1 EC50
T1 construct: expressed in transfected cells; host or cells: CHO cells (Chinese hamster ovary cells, ATCC)
T1 sequence (P11229 1-460): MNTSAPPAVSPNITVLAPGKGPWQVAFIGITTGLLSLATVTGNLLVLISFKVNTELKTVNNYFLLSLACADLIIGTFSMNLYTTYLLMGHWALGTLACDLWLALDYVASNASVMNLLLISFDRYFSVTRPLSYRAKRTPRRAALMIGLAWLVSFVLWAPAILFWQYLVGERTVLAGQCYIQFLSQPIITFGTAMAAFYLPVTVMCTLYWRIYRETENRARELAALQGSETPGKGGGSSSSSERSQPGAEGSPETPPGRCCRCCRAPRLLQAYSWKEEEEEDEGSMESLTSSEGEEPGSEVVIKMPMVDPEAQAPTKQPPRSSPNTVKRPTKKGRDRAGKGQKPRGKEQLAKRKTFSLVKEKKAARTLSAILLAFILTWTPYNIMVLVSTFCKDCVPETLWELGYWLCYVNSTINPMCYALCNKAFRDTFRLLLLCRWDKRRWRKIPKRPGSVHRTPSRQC
Description: (§1) The compound activity in the present invention (EC50 or IC50) is measured using a 384 plate-based imaging assay that monitors drug induced intracellular Ca^2+ release in whole cells. Activation of hM1 (human Muscarinic receptor subtype 1, gene bank access NM_000738), rM1 (rat Muscarinic receptor subtype 1, gene bank access NM_080773), hM3 (human Muscarinic receptor subtype 3, gene bank access NM_000740NM_000740) and hM5 (human Muscarinic receptor subtype 5, gene bank access NM_0121258), receptors expressed in CHO cells (Chinese hamster ovary cells, ATCC) is quantified in a Molecular Devices FLIPR IITM instrument as an increase in fluorescent signal. Inhibition of hM3 and hM5 by compounds is determined by the decrease in fluorescent signal in response to 2 nM acetylcholine activation.
(§2) Prior to experiment, the cell culture medium is removed from the plates by inversion. […] Plates are incubated at 37° C. for 60 minutes prior to start the experiment. The incubation is terminated by washing the cells four times in assay buffer, leaving a residual 25 μl buffer per well. Cell plates are then transferred to the FLIPR, ready for compound additions.
(§3) The day of experiment, acetylcholine and compounds are diluted in assay buffer in three-fold concentration range (10 points serial dilution) for addition by FLIPR instrument. For all calcium assays, a baseline reading is taken for 10 seconds followed by the addition of 12.5 μl of compounds, resulting in a total well volume of 37.5 μl. Data is collected every second for 60 pictures and then every 6 seconds for 20 pictures prior to the addition of agonist. For hM3 and hM5, before agonist addition, a second baseline reading is taken for 10 seconds followed by the addition of 12.5 μl of agonist or buffer, producing a final volume of 50 μl. After agonist stimulation, the FLIPR continues to collect data every second for 60 pictures and then every 6 seconds for 20 pictures. The fluorescence emission is read using filter 1 (emission 510-570 nm) by the FLIPR on board CCD camera.
(§4) Calcium mobilization output data are calculated as the maximal relative fluorescence unit (RFU) minus the minimal value for both compound and agonist reading frame (except for hM1 and rM1 using only the maximal RFU). Data are analyzed using sigmoidal fits of a non-linear curve-fitting program (XLfit version 4.2.2 Excel add-in version 4.2.2 build 18 math 1Q version 2.1.2 build 18). All pEC50 and pIC50 values are reported as arithmetic means±standard error of mean of ‘n’ independent experiments.

[2] = biological target: T2, hM3 (human Muscarinic receptor subtype 3) (Homo sapiens, UniProt P20309); test: Human M3 calcium mobilization FLIPR assay; assay type: cell-based; settings: receptor expressed in CHO cells, intracellular Ca2+ release
T2 construct: expressed in transfected cells; host or cells: CHO cells (Chinese hamster ovary cells, ATCC)
Description: as §1, §2, §3, §4

[3] = biological target: T3, human M4 receptor (human Muscarinic receptor subtype 4) (Homo sapiens, UniProt P08173); test: hM4 receptor GTPγS binding; assay type: biochemical; settings: CHO membranes, [35S]GTPγS binding
T3 construct: purchased Perkin-Elmer RBHM4M; host or cells: membranes from CHO cells expressing the cloned receptor
T3 sequence (P08173 1-479): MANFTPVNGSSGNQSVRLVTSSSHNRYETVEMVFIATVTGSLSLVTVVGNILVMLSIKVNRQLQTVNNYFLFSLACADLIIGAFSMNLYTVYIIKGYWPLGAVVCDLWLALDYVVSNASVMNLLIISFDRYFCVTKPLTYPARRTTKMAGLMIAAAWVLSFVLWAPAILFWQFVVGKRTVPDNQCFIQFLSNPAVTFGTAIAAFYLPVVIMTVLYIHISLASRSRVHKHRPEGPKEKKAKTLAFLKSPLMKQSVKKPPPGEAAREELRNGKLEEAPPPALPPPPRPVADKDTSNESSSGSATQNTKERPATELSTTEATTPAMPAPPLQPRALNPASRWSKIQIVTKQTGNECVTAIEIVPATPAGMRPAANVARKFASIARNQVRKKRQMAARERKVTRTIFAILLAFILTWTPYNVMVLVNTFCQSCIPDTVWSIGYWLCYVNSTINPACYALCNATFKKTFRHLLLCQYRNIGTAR
Description: Membranes produced from Chinese hamster ovary cells (CHO) expressing the cloned human M4 receptor (human Muscarinic receptor subtype 4, gene bank access NM_000741), are obtained from Perkin-Elmer (RBHM4M). The membranes are thawed at 37° C., passed 3 times through a 23-gauge blunt-end needle, diluted in the GTPγS binding buffer (50 mM Hepes, 20 mM NaOH, 100 mM NaCl, 1 mM EDTA, 5 mM MgCl2, pH 7.4, 100 μM DTT). The EC50, IC50 and Emax of the compounds of the invention are evaluated from 10-point dose-response curves (three fold concentration range) done in 60 μl in 384-well non-specific binding surface plate (Corning). Ten microliters from the dose-response curves plate (5× concentration) are transferred to another 384 well plate containing 25 μl of the following: 10 μg of hM4 membranes, 500 μg of Flashblue beads (Perkin-Elmer) and GDP 40 μM. An additional 15 μl containing 3.3× (60,000 dpm) of GTPγS (0.4 nM final) are added to the wells resulting in a total well volume of 50 μl. Basal and maximal stimulated [^35S]GTPγS binding are determined in absence and presence of 30 μM final of acetylcholine agonist. The membranes/beads mix are pre-incubated for 15 minutes at room temperature with 40 μM GDP prior to distribution in plates (20 μM final). The reversal of acetylcholine-induced stimulation (10 μM final) of [^35S]GTPγS binding is used to assay the antagonist properties (IC50) of the compounds. The plates are incubated for 60 minutes at room temperature then centrifuged at 400 rpm for 5 minutes. The radioactivity (cpm) is counted in a Trilux (Perkin-Elmer).
Values of EC50, IC50 and Emax are obtained using sigmoidal fits of a non-linear curve-fitting program (XLfit version 4.2.2 Excel add-in version 4.2.2 build 18 math 1Q version 2.1.2 build 18) of percent stimulated [^35S]GTPγS binding vs. log(molar ligand). All pEC50 and pIC50 values are reported as arithmetic means±standard error of mean of ‘n’ independent experiments.

T2 sequence (P20309 whole entry): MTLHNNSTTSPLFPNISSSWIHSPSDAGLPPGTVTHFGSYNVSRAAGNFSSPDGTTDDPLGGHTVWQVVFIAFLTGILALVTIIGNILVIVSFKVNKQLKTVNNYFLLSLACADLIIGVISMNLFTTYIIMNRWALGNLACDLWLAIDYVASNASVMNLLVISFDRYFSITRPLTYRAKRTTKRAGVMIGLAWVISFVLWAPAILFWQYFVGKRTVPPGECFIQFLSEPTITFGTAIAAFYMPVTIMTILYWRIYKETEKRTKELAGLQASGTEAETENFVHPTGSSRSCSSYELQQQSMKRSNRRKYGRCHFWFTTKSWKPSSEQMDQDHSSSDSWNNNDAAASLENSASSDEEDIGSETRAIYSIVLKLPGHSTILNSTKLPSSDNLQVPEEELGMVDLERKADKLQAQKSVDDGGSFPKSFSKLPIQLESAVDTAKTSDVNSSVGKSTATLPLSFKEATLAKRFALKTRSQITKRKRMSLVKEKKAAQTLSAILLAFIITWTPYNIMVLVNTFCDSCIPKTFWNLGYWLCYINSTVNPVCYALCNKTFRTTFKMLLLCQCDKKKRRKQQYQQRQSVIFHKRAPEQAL

SMILES | EC50 [1] | EC50 [2] | EC50 [3]
CCOC(=O)N1CCC(C)(N2CCC(N3C(=O)CO[C@H]4CCCC[C@@H]43)CC2)C1 (single isomer, unassigned) [Example 18] | 23 nM | > 40000 nM | 8970 nM
CCOC(=O)N1CCC(C)(N2CCC(N3C(=O)CO[C@H]4CCCC[C@@H]43)CC2)C1 (single isomer, unassigned) [Example 19] | 46 nM | > 40000 nM | > 30000 nM
CCOC(=O)N1CCC(N2CCC(N3C(=O)NC[C@H]4CCCC[C@@H]43)CC2)CC1 [Example 1, Ethyl 4-[4-[(4aR,8aS)-2-oxo-3,4,4a,5,6,7,8,8a-octahydroquinazolin-1-y]-1-piperidyl]piperidine-1-carboxylate] | 1.6 nM |  | 1700 nM
CC(C)OC(=O)N1CCC(N2CCC(N3C(=O)NC[C@H]4CCCC[C@@H]43)CC2)CC1 [Example 2, Propan-2-yl 4-[4-[(4aR,8aS)-2-oxo-3,4,4a,5,6,7,8,8a-octahydroquinazolin-1-yl]-1-piperidyl]piperidine-1-carboxylate] | 5.3 nM | > 49000 nM | > 20000 nM
O=C(C1CC1)N1CCC(N2CCC(N3C(=O)NC[C@H]4CCCC[C@@H]43)CC2)CC1 [Example 3, (4aR,8aS)-1-[1-[1-(cyclopropanecarbonyl)-4-piperidyl]-4-piperidyl]-3,4,4a,5,6,7,8,8a-octahydroquinazolin-2-one] | 13 nM | > 49000 nM | > 30000 nM
Cc1ccccc1C(=O)N1CCC(N2CCC(N3C(=O)NC[C@H]4CCCC[C@@H]43)CC2)CC1 [Example 4, (4aR,8aS)-1-[1-[1-(2-methylbenzoyl)-4-piperidyl]-4-piperidyl]-3,4,4a,5,6,7,8,8a-octahydroquinazolin-2-one] | 25 nM | > 49000 nM | > 30000 nM
CC(C)OC(=O)N1CCC(N2CCC(N3C(=O)N(C)C[C@H]4CCCC[C@@H]43)CC2)CC1 [Example 6, Propan-2-yl 4-[4-[(4aR,8aS)-3-methyl-2-oxo-4a,5,6,7,8,8a-hexahydro-4H-quinazolin-1-yl]-1-piperidyl]piperidine-1-carboxylate] | 94 nM | > 40000 nM | > 30000 nM
CCOC(=O)N1CCC(C)(N2CCC(N3C(=O)NC[C@H]4CCCC[C@@H]43)CC2)CC1 [Example 7, Ethyl 4-[4-[(4aR,8aS)-2-oxo-3,4,4a,5,6,7,8,8a-octahydroquinazolin-1-yl]-1-piperidyl]-4-methyl-piperidine-1-carboxylate] | 4.5 nM | 690 nM | > 1600 nM
CC(C)OC(=O)N1CCC(C)(N2CCC(N3C(=O)NC[C@H]4CCCC[C@@H]43)CC2)CC1 [Example 8, Propan-2-yl 4-[4-[(4aR,8aS)-2-oxo-3,4,4a,5,6,7,8,8a-octahydroquinazolin-1-yl]-1-piperidyl]-4-methyl-piperidine-1-carboxylate] | < 11 nM | > 40000 nM | > 30000 nM
CCOC(=O)N1CCC(N2CCC(N3C(=O)CO[C@H]4CCCC[C@@H]43)CC2)CC1 [Example 9, Ethyl 4-[4-[(1S,6S)-9-oxo-7-oxa-10-azabicyclo[4.4.0]dec-10-yl]-1-piperidyl]piperidine-1-carboxylate] | 17 nM | > 40000 nM | 4300 nM
CC(C)OC(=O)N1CCC(N2CCC(N3C(=O)CO[C@H]4CCCC[C@@H]43)CC2)CC1 [Example 10, Propan-2-yl 4-[4-[(1S,6S)-9-oxo-7-oxa-10-azabicyclo[4.4.0]dec-10-yl]-1-piperidyl]piperidine-1-carboxylate] | 22 nM | > 40000 nM | > 30000 nM
Cc1ccccc1C(=O)N1CCC(N2CCC(N3C(=O)CO[C@H]4CCCC[C@@H]43)CC2)CC1 [Example 11, (1S,6S)-10-[1-[1-(2-methylbenzoyl)-4-piperidyl]-4-piperidyl]-7-oxa-10-azabicyclo[4.4.0]decan-9-one] | 170 nM | > 40000 nM | > 30000 nM
Cn1cccc1C(=O)N1CCC(N2CCC(N3C(=O)CO[C@H]4CCCC[C@@H]43)CC2)CC1 [Example 12, (1S,6S)-10-[1-[1-(1-methylpyrrole-2-carbonyl)-4-piperidyl]-4-piperidyl]-7-oxa-10-azabicyclo[4.4.0]decan-9-one] | 340 nM | > 40000 nM | > 30000 nM
CCOC(=O)N1CC[C@H](N2CCC(N3C(=O)CO[C@H]4CCCC[C@@H]43)CC2)C1 [Example 13, Ethyl (3S)-3-[4-[(1S,6S)-9-oxo-7-oxa-10-azabicyclo[4.4.0]dec-10-yl]-1-piperidyl]pyrrolidine-1-carboxylate] | 200 nM | > 40000 nM | > 30000 nM
CC(C)OC(=O)N1CCC(N2CCC(N3C(=O)CO[C@@H]4CCCC[C@H]43)CC2)CC1 [Example 14, Propan-2-yl 4-[4-[(1R,6R)-9-oxo-7-oxa-10-azabicyclo[4.4.0]dec-10yl]-1-piperidyl]piperidine-1-carboxylate] | 130 nM | > 40000 nM | > 30000 nM
CCOC(=O)N1CCC(N2CCC(N3C(=O)OC[C@H]4CCCC[C@@H]43)CC2)CC1 [Example 15, Ethyl 4-[4-[(1S,6S)-9-oxo-8-oxa-10-azabicyclo[4.4.0]dec-10-yl]-1-piperidyl]piperidine-1-carboxylate] | 83 nM | > 40000 nM | > 30000 nM
